Assay results published in patent US5179117A, “Antihypercholesterolemic 2-substituted imidazoles” (Du Pont Merck Pharmaceutical Company, priority 1991, dated 1993).
Where a name gives a salt, the structure may show the parent alone.

Biological target: T1, acyl-CoA: cholesterol acyltransferase (ACAT) (Mus musculus, UniProt Q61263)
T1 construct: endogenous in cells; host or cells: J774.A1 murine macrophage-like cells
T1 sequence (Q61263 1-540): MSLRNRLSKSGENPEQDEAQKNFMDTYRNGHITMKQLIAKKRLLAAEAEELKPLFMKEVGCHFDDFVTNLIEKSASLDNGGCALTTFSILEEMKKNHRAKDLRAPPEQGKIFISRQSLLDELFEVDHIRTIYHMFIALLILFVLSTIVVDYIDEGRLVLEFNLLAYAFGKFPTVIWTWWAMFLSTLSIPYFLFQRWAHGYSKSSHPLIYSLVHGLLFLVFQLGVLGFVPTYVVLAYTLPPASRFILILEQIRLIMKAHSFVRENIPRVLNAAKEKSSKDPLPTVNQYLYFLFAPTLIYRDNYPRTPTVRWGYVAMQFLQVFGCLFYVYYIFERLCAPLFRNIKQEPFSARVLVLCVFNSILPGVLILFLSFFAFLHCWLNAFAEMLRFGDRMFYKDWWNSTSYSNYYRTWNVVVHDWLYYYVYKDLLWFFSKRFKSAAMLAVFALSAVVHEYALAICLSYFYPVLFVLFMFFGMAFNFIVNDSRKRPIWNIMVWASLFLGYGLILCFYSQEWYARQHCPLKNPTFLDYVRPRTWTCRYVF
Assay: Assay of the inhibition of cholesterol esterification in mammalian cells (J774.A1 macrophages, 14C-oleic acid incorporation into cholesteryl ester, ac-LDL loaded)
Type: cell-based
Conditions: murine macrophage-like cell line J774.A1, ac-LDL loaded, 14C-oleic acid pulse; read-out: Cholesterol Esterification IC50 (concentration at which ACAT activity is inhibited by 50%)
Protocol: The esterification of cholesterol was determined in the murine macrophage-like cell line J774.A1. Cells were seeded in 35 mm wells at a density of 300,000 cells per well in 2 mls of Dulbecco's Eagle Medium (DMEM) supplemented with 10% fetal bovine serum (FBS). Cells were incubated at 37° C. in an atmosphere of 5% CO2 and 93% humidity. After 24 hours the media was changed to 0.68 mls 10% FBS-DMEM containing 34 μg of acetylated human low density lipoprotein (ac-LDL) to increase the intracellular concentration of cholesterol and promote esterification. At 41 hours, various inhibitors were added to the cells in DMSO (10 μl/ml maximum). At 43 hours, the cells were pulsed with 0.1 mM ^14 C-oleic acid (10,000 dpm/nmol) complexed with BSA (bovine serum albumin) to follow cholesterol ester formation. The experiment was terminated at 45 hours by washing the monolayers 3 time with 3 ml of Tris-buffered saline at 4° C. The lipids were extracted by incubating the monolayers with 1.5 ml of hexane: isopropanol (3:2, v/v) for 30 min. under gentle agitation. During this period, 10,000 dpm ^3 H-cholesteryl linoleate and 10 μg of cholesteryl oleate were added as an internal standard and carrier respectively. The organic solvent was removed and the cells were washed with an additional 1.0 ml of hexane: isopropanol which was combined with the original extract. The cells were allowed to dry overnight, digested with 1.5 ml of 0.2N sodium hydroxide for 1 hour and an aliquot of the solubilized protein used for protein determination using the Lowry method. The organic extract was taken to dryness, the residue resuspended in 100 μl of chloroform and the lipids separated on silica gel impregnated glass fiber plates using a hexane: diethylether: acetic acid (170:30:1, v/v/v) solvent system. Individual lipids were visualized with iodine and the cholesteryl ester spot cut out and transferred to scintillation vials to determine the amount of radioactivity. The conversion of oleic acid to cholesteryl ester in the control averaged […]/hour/mg protein and was increased upon the addition of ac-LDL to about […]/hour/mg protein. The inhibition of esterification by the compounds is shown in Table 2; the data are expressed as the concentration at which ACAT activity is inhibited by 50% (IC50).

Structure (SMILES) | IC50 [nM]
COC(=O)[C@H](CCCCNC(C)=O)NC(=O)CCCSc1nc(-c2ccc(OC)cc2)c(-c2ccc(OC)cc2)n1C(C)=O [Example 5, N6-acetyl-N2-[4-[1-acetyl-4,5-bis(4-methoxyphenyl)-1H-imidazol-2-ylthio]-1-oxobutyl]-L-lysine, methyl ester] | 7150
COc1ccc(-c2nc(SCCCC(=O)N[C@@H](CCCCNC(=O)OCc3ccccc3)C(=O)NC(C)C)[nH]c2-c2ccc(OC)cc2)cc1 [Example 7, phenylmethyl, (S)-[5-[[4-[4,5-bis(4-methoxyphenyl)-1H-imidazol-2-ylthio]-1-oxobutyl]amino]-6-[(1-methylethyl)amino]-6-oxohexyl]carbamate] | 1100
COC(=O)[C@H](CCCCNC(=O)OCc1ccccc1)NC(=O)CCCSc1nc(-c2ccc(N(C)C)cc2)c(-c2ccc(N(C)C)cc2)[nH]1 [Example 8, N2-[4-[4,5-bis[4-(dimethylamino)phenyl] -1H-imidazol-2-ylthio]-1-oxobutyl]-N6-[(phenylmethoxy)carbonyl]-L-lysine, methylester] | 4.9
CCCCCC(=CCCCCSc1nc(-c2ccccc2)c(-c2ccccc2)[nH]1)C(=O)OCC [Example 10, ethyl, 7-(4,5-diphenyl-1H-imidazol-2-ylthio)-2-pentyl-2-heptenoate] | 4620
CCCCCC(=CCCCCSc1nc(-c2ccccc2)c(-c2ccccc2)[nH]1)C(=O)O [Example 11, 7-(4,5-diphenyl-1H-imidazol-2-ylthio)-2-pentyl-2-heptenoic acid] | 13400

Continued, values first:

IC50 [nM] | Structure (SMILES)
37 | COC(=O)[C@H](CCCCNC(=O)OCc1ccccc1)NC(=O)CCCSc1nc(-c2ccc(OC)cc2)c(-c2ccc(OC)cc2)[nH]1 [Example 1, N2-[4-[4,5-bis(4-methoxyphenyl)-1H-imidazol-2-ylthio]-1-oxobutyl]-N6-[(phenylmethoxy)carbonyl]-L-lysine, methyl ester]
100000 | COC(=O)[C@H](CCCCN)NC(=O)CCCSc1nc(-c2ccc(OC)cc2)c(-c2ccc(OC)cc2)[nH]1 [Example 2, N2-[4-[4,5-bis(4-methoxyphenyl)-1H-imidazol-2-ylthio]-1-oxobutyl]-L-lysine, methyl ester hydrobromide]
386 | COC(=O)[C@H](CCCCNC(=O)C12CC3CC(CC(C3)C1)C2)NC(=O)CCCSc1nc(-c2ccc(OC)cc2)c(-c2ccc(OC)cc2)[nH]1 [Example 3, N6-(1-adamantylcarbonyl)-N2-[4-[4,5-bis(4-methoxyphenyl)-1H-imidazol-2-ylthio]-1-oxobutyl]-L-lysine, methyl ester]
601 | COC(=O)[C@H](CCCCNC(=O)NCc1ccccc1)NC(=O)CCCSc1nc(-c2ccc(OC)cc2)c(-c2ccc(OC)cc2)[nH]1 [Example 4, N2-[4-[4,5-bis(4-methoxyphenyl)-1H-imidazol-2-ylthio]-1-oxobutyl]-N6-[(phenylmethyl)-aminocarbonyl]-L-lysine, methyl ester]
10300 | COC(=O)[C@H](CCCCNC(C)=O)NC(=O)CCCSc1nc(-c2ccc(OC)cc2)c(-c2ccc(OC)cc2)[nH]1 [Example 6, N6-acetyl-N2-[4-[4,5-bis(4-methoxyphenyl)-1H-imidazol-2-ylthio]-1-oxobutyl]-L-lysine, methyl ester]
650 | CCCC[C@H](NC(=O)CCCSc1nc(-c2ccc(OC)cc2)c(-c2ccc(OC)cc2)[nH]1)C(=O)OC [Example 9, N-[4-[4,5-bis(4-methoxyphenyl)-1H-imidazol-2-ylthio]-1-oxobutyl]-norleucine, methyl ester]
